Data reported in patent US9120779B2, “Inhibitors of HCV NS5A” (PRESIDIO PHARMACEUTICALS, INC., priority 2008, dated 2015).

These molecules were tested on HCV genotype 1b replicon in Huh 7 cells (assay: HCV replicon assay (luciferase readout, 1b_Huh-Luc/Neo-ET cell line)). Settings: Hepatitis C virus, Huh-7, 72 h, read-out: Inhibition of HCV genotype 1b, Table 1, 72 h incubation.
Assay type: cell-based
Summary of the method: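 Inhibition expressed as percent of untreated control luciferase signal and fitted to a Hill-slope equation for EC50, with repeat determinations. Compounds were added in triplicate to Huh 7 cells stably expressing the genotype 1b luciferase replicon, with 72 h exposure.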
Work on `COC(=O)N[C@H](C(=O)N1CCC[C@H]1c1ncc(-c2ccc([C@H]3CC[C@H](c4cnc([C@@H]5CCCN5C(=O)[C@@H](c5ccccc5)N(C)C)[nH]4)CC3)cc2)[nH]1)C(C)C` [compound 940] yielded an EC50 of less than 1 nM. Molecule `COC(=O)N[C@H](C(=O)N1CCC[C@H]1c1ncc(-c2ccc([C@H]3CC[C@H](c4cnc([C@@H]5CCCN5C(=O)[C@H](C(C)C)N(C)C)[nH]4)CC3)cc2)[nH]1)C(C)C` [compound 941] has an EC50 of less than 1 nM. `COC(=O)N[C@H](C(=O)N1CCC[C@H]1c1ncc(-c2ccc([C@H]3CC[C@H](c4cnc([C@@H]5CCCN5C(=O)[C@@H](NC(=O)OC)C5CC5)[nH]4)CC3)cc2)[nH]1)C1CC1` [compound 942] was tested, and the EC50 was less than 1 nM. For `CC[C@H](C)[C@H](NC(=O)OC)C(=O)N1CCC[C@H]1c1ncc(-c2ccc([C@H]3CC[C@H](c4cnc([C@@H]5CCCN5C(=O)[C@@H](NC(=O)OC)[C@@H](C)CC)[nH]4)CC3)cc2)[nH]1` [compound 943], the EC50 was less than 1 nM. Molecule `COC(=O)N[C@H](C(=O)N1CCC[C@H]1c1ncc(-c2ccc([C@H]3CC[C@H](c4cnc([C@@H]5CCCN5C(=O)[C@H](NC(=O)NC5CCOCC5)C(C)C)[nH]4)CC3)cc2)[nH]1)C(C)C` [compound 944] has an EC50 of less than 1 nM. With `COC(=O)N[C@H](C(=O)N1CCC[C@H]1c1ncc(-c2ccc([C@H]3CC[C@H](c4cnc([C@@H]5CCCN5C(=O)[C@@H](NC(=O)OC5CCOCC5)C(C)C)[nH]4)CC3)cc2)[nH]1)C(C)C` [compound 945] the EC50 was less than 1 nM. With `COC(=O)N[C@H](C(=O)N1CCC[C@H]1c1ncc(-c2ccc([C@H]3CC[C@H](c4cnc([C@@H]5CCCN5C(=O)[C@H](NC(=O)OC5CCOCC5)C(C)C)[nH]4)CC3)cc2)[nH]1)C(C)C` [compound 946] the EC50 was less than 1 nM. For `COC(=O)N[C@H](C(=O)N1CCC[C@H]1c1ncc(-c2ccc([C@H]3CC[C@H](c4cnc([C@@H]5CCCN5C(=O)[C@@H](c5ccccc5)N5CCCCC5)[nH]4)CC3)cc2)[nH]1)C(C)C` [compound 947], the EC50 was less than 1 nM. `COC(=O)N[C@H](C(=O)N1CCC[C@H]1c1ncc(-c2ccc([C@H]3CC[C@H](c4cnc([C@@H]5CCCN5C(=O)[C@H](NC(=O)OC)c5ccccc5)[nH]4)CC3)cc2)[nH]1)C(C)C` [compound 2001] gave an EC50 of less than 1 nM. `COC(=O)N[C@H](C(=O)N1CCC[C@H]1c1ncc([C@H]2CC[C@H](c3ccc(-c4cnc([C@@H]5CCCN5C(=O)[C@H](NC(=O)OC)c5ccccc5)[nH]4)cc3)CC2)[nH]1)C(C)C` [compound 2002] gave an EC50 of less than 1 nM. In the case of `COC(=O)N[C@H](C(=O)N1CCC[C@H]1c1ncc(-c2ccc([C@H]3CC[C@H](c4cnc([C@@H]5CCCN5C(=O)[C@H](NC(=O)N5CCC(O)CC5)c5ccccc5)[nH]4)CC3)cc2)[nH]1)C(C)C` [compound 2003], the EC50 is reported as less than 1 nM. With `CNC(=O)N[C@H](C(=O)N1CCC[C@H]1c1ncc(-c2ccc([C@H]3CC[C@H](c4cnc([C@@H]5CCCN5C(=O)[C@H](NC(=O)OC)c5ccccc5)[nH]4)CC3)cc2)[nH]1)C(C)C` [compound 2004] the EC50 was less than 1 nM. For `COC(=O)N[C@H](C(=O)N1CCC[C@H]1c1ncc(-c2ccc([C@H]3CC[C@](C)(c4cnc([C@@H]5CCCN5C(=O)[C@@H](NC(=O)OC)C(C)C)[nH]4)CC3)cc2)[nH]1)C(C)C` [compound 2005], the EC50 was less than 1 nM. With `COC(=O)N[C@@H](C(=O)N1CCC[C@H]1c1ncc(-c2ccc([C@H]3CC[C@](C)(c4cnc([C@@H]5CCCN5C(=O)[C@H](NC(=O)OC)c5ccccc5)[nH]4)CC3)cc2)[nH]1)c1ccccc1` [compound 2006] the EC50 was less than 1 nM.

Same assay, conditions: Hepatitis C virus, Huh-7, 72 h, read-out: Inhibition of HCV genotype 1b, Table 3, 72 h incubation
Work on `COC(=O)N[C@@H](C(=O)N1CCC[C@H]1c1ncc(-c2cc(F)c(N3CCC(C)(c4cnc([C@@H]5CCCN5C(=O)[C@H](NC(=O)OC)c5ccccc5)[nH]4)CC3)c(F)c2)[nH]1)c1ccccc1` [compound 2028] yielded an EC50 of less than 1 nM.

Same assay, conditions: Hepatitis C virus, Huh-7, 72 h, read-out: Inhibition of HCV genotype 1b, Table 4, 72 h incubation
In the case of `COC(=O)N[C@H](C(=O)N1CCC[C@H]1c1nc2ccc(-c3ccc(-c4ccc5nc([C@@H]6CCCN6C(=O)[C@H](C(C)C)N(C)C)[nH]c5c4)cc3)cc2[nH]1)C(C)C` [compound 933], the EC50 is reported as less than 1 nM. Molecule `COC(=O)N[C@H](C(=O)N1CCC[C@H]1c1nc2ccc(-c3ccc(-c4ccc5nc([C@@H]6CCCN6C(=O)[C@@H](C(C)C)N(C)C)[nH]c5c4)cc3)cc2[nH]1)C(C)C` [compound 934] has an EC50 of less than 1 nM. In the case of `COC(=O)N[C@H](C(=O)N1CCC[C@H]1c1nc2ccc(-c3ccc(-c4ccc5nc([C@H](C)NC(=O)[C@H](C(C)C)N(C)C)[nH]c5c4)cc3)cc2[nH]1)C(C)C` [compound 935], the EC50 is reported as less than 1 nM. For `COC(=O)N[C@H](C(=O)N1CCC[C@H]1c1nc2ccc(-c3ccc(-c4ccc5nc([C@H](C)NC(=O)[C@@H](C(C)C)N(C)C)[nH]c5c4)cc3)cc2[nH]1)C(C)C` [compound 936], the EC50 was less than 1 nM. Molecule `COC(=O)N[C@H](C(=O)N[C@@H](C)c1nc2ccc(-c3ccc(-c4ccc5nc([C@@H]6CCCN6C(=O)[C@H](C(C)C)N(C)C)[nH]c5c4)cc3)cc2[nH]1)C(C)C` [compound 937] has an EC50 of 1 to 9.9 nM. For `COC(=O)N[C@H](C(=O)N[C@@H](C)c1nc2ccc(-c3ccc(-c4ccc5nc([C@@H]6CCCN6C(=O)[C@@H](C(C)C)N(C)C)[nH]c5c4)cc3)cc2[nH]1)C(C)C` [compound 938], the EC50 was less than 1 nM. In the case of `COC(=O)N[C@H](C(=O)N1CCC[C@H]1c1nc2ccc(-c3ccc(-c4ccc5nc([C@H](C)NC(=O)[C@@H](c6ccccc6)N(C)C)[nH]c5c4)cc3)cc2[nH]1)C(C)C` [compound 939], the EC50 is reported as less than 1 nM. `COC(=O)N[C@@H](C(=O)N1CCC[C@H]1c1nc2ccc(-c3ccc(-c4ccc5nc([C@@H]6CCCN6C(=O)[C@H](NC(=O)OC)C(C)C)[nH]c5c4)cc3)cc2[nH]1)C(C)C` [compound 2035] gave an EC50 of 10 to 999 nM. `COC(=O)N[C@H](C(=O)N1CCC[C@H]1c1nc2ccc(-c3cnc(-c4ccc5nc([C@@H]6CCCN6C(=O)[C@@H](NC(=O)OC)C(C)C)[nH]c5c4)cn3)cc2[nH]1)C(C)C` [compound 2036] was tested, and the EC50 was less than 1 nM. With `COC(=O)N[C@H](C(=O)N[C@@H](C)c1nc2ccc(-c3ccc(-c4ccc5nc([C@@H]6CCCN6C(=O)[C@@H](c6ccccc6)N(C)C)[nH]c5c4)cc3)cc2[nH]1)C(C)C` [compound 2037] the EC50 was less than 1 nM. With `COC(=O)N[C@H](C(=O)N1CCC[C@H]1c1nc2ccc(-c3ccc(-c4ccc5nc([C@@H]6CCCN6C(=O)[C@@H](c6ccccc6)N(C)C)[nH]c5c4)cc3)cc2[nH]1)C(C)C` [compound 2038] the EC50 was less than 1 nM. `COC(=O)N[C@H](C(=O)N1CCC[C@H]1c1nc2ccc(-c3ccc(-c4ccc5nc([C@@H]6CCCN6C(=O)[C@@H](NC(=O)OC)C6CCOCC6)[nH]c5c4)cc3)cc2[nH]1)C1CCOCC1` [compound 2039] was tested, and the EC50 was less than 1 nM. `COC(=O)N[C@H](C(=O)N1CCC[C@H]1c1nc2ccc(-c3ccc(-c4ccc5nc([C@@H]6CCCN6C(=O)[C@@H](NC(=O)OC)C6CCOCC6)[nH]c5c4)cc3)cc2[nH]1)C(C)C` [compound 2040] gave an EC50 of less than 1 nM.

Same assay, conditions: Hepatitis C virus, Huh-7, 72 h, read-out: Inhibition of HCV genotype 1b, Table 5, 72 h incubation
For `COC(=O)N[C@H](C(=O)N1CCC[C@H]1c1ncc(-c2ccc(C34CCC(c5cnc([C@@H]6CCCN6C(=O)[C@@H](c6ccccc6)N(C)C)[nH]5)(CC3)CC4)cc2)[nH]1)C(C)C` [compound 2051], the EC50 was less than 1 nM. `COC(=O)N[C@@H](C(=O)N1CCC[C@H]1c1ncc(-c2ccc(C34CCC(c5cnc([C@@H]6CCCN6C(=O)[C@@H](NC(=O)N6CCOCC6)C(C)C)[nH]5)(CC3)CC4)cc2)[nH]1)c1ccccc1` [compound 2052] was tested, and the EC50 was less than 1 nM. `COC(=O)N[C@H](C(=O)N1CCC[C@H]1c1ncc(-c2ccc(C34CCC(c5cnc([C@@H]6CCCN6C(=O)[C@@H](NC(=O)OC6CCOCC6)C(C)C)[nH]5)(CC3)CC4)cc2)[nH]1)C(C)C` [compound 2053] showed an EC50 of 1 to 9.9 nM. In the case of `COC(=O)N[C@H](C(=O)N1CCC[C@H]1c1ncc(-c2ccc(C34CCC(c5cnc([C@@H]6CCCN6C(=O)[C@@H](NC6CCOCC6)C(C)C)[nH]5)(CC3)CC4)cc2)[nH]1)C(C)C` [compound 2054], the EC50 is reported as 1 to 9.9 nM. In the case of `COC(=O)N[C@H](C(=O)N1CCC[C@H]1c1ncc(-c2ccc(C34CCC(c5cnc([C@@H]6CCCN6C(=O)[C@H](NC6CCOCC6)C(C)C)[nH]5)(CC3)CC4)cc2)[nH]1)C(C)C` [compound 2055], the EC50 is reported as less than 1 nM. `COC(=O)N[C@H](C(=O)N1CCC[C@H]1c1ncc(-c2ccc(C34CCC(c5cnc([C@@H]6CCCN6C(=O)[C@H](C(C)C)N(C)C)[nH]5)(CC3)CC4)cc2)[nH]1)C(C)C` [compound 2056] gave an EC50 of less than 1 nM. Work on `COC(=O)N[C@H](C(=O)N1CCC[C@H]1c1ncc(-c2ccc(C34CCC(c5cnc([C@@H]6CCCN6C(=O)[C@@H](C(C)C)N(C)C)[nH]5)(CC3)CC4)cc2)[nH]1)C(C)C` [compound 2057] yielded an EC50 of less than 1 nM. For `COC(=O)N[C@H](C(=O)N1CCC[C@H]1c1ncc(-c2ccc(C34CCC(c5cnc([C@@H]6CCCN6C(=O)[C@H](C(C)C)N6CCC(O)CC6)[nH]5)(CC3)CC4)cc2)[nH]1)C(C)C` [compound 2058], the EC50 was less than 1 nM. `COC(=O)N[C@H](C(=O)N1CCC[C@H]1c1ncc(-c2ccc(C34CCC(c5cnc([C@@H]6CCCN6C(=O)[C@@H](NC(=O)N6CCC(O)CC6)C(C)C)[nH]5)(CC3)CC4)cc2)[nH]1)C(C)C` [compound 2059] showed an EC50 of less than 1 nM. `COC(=O)N[C@H](C(=O)N1CCC[C@H]1c1ncc(-c2ccc(C34CCC(c5cnc([C@@H]6CCCN6C(=O)[C@@H](NC(=O)N6CCOCC6)C(C)C)[nH]5)(CC3)CC4)cc2)[nH]1)C(C)C` [compound 2060] gave an EC50 of less than 1 nM. Work on `COC(=O)N[C@@H](C)C(=O)N1CCC[C@H]1c1ncc(C23CCC(c4ccc(-c5cnc([C@@H]6CCCN6C(=O)[C@@H](NC(=O)OC)C(C)C)[nH]5)cc4)(CC2)CC3)[nH]1` [compound 2061] yielded an EC50 of less than 1 nM. Molecule `COC(=O)N[C@H](C(=O)N1CCC[C@H]1c1ncc(-c2ccc(C34CCC(c5cnc([C@@H]6CCCN6C(=O)[C@@H](C)NC(=O)OC)[nH]5)(CC3)CC4)cc2)[nH]1)C(C)C` [compound 2062] has an EC50 of less than 1 nM. `COC(=O)N[C@@H](C(=O)N1CCC[C@H]1c1ncc(-c2ccc(C34CCC(c5cnc([C@@H]6CCCN6C(=O)[C@H](C(C)C)N(C)C)[nH]5)(CC3)CC4)cc2)[nH]1)c1ccccc1` [compound 2063] showed an EC50 of less than 1 nM.
